Test results from patent publication US6503938B1, “2-phenylindoles as antiestrogenic pharmaceutical agents” (Schering Aktiengesellschaft, priority 1994, dated 2003).

How the values were obtained:
[1] = target: T1, estrogen receptor consisting of calf uterus cytosol (Bos taurus, UniProt P49884); test: Relative binding affinity (RBA) for the estrogen receptor, displacement of 3H-17β-estradiol; details: RBA(17β-estradiol) = 100
T1 construct: for the estrogen receptor consisting of calf uteri; from tissue; host or cells: calf uterus
T1 sequence (P49884 1-596): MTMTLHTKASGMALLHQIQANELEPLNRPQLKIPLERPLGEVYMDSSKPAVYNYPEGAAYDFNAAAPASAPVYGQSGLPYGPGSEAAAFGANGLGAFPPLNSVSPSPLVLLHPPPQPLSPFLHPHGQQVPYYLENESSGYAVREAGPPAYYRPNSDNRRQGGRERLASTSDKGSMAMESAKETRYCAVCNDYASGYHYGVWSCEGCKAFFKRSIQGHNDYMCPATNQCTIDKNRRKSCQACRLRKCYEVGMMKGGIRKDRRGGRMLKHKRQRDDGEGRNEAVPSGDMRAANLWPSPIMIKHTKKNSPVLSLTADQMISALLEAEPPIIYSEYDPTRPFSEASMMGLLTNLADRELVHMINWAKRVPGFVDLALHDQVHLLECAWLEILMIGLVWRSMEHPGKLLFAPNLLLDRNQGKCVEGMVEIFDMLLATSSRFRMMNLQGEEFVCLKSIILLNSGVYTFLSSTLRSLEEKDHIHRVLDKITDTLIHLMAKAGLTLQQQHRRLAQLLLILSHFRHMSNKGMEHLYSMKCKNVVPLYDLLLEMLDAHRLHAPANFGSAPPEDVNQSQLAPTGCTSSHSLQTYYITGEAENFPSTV

[2] = tested on: hormone-sensitive human MCF-7 breast cancer cells; test: Cytostatic activity on hormone-sensitive human MCF-7 breast cancer cells (T/C of optical densities); assay type: cell-based; details: mean of 16 determinations ± SD
[3] = tested on: uterus of infantile mice; test: Uterus weight test in infantile mice (estrogenic and antiestrogenic action); assay type: in vivo; details: for estrogenic action on the uterus of infantile mice: s.c. in olive oil on three successive days, uterus dry weight/body weight 24 hours after the last injection
Experimental: Compound no. […] For compounds nos. […] The dose/animal was administered s.c., dissolved in olive oil, on three successive days. The dry weight of the uterus [mg]/body weight [g]×100 was determined 24 hours after the last injection. This test is described in detail in Cancer Treatment Reviews, 1984, 11, 147 and J. Med. Chem., 1984, 27, 1439.

[4] = substance concentration 1 · 10^−6 M in the incubation medium
[5] = substance concentration 1 · 10^−7 M in the incubation medium
[6] = substance concentration 1 · 10^−8 M in the incubation medium
[7] = substance concentration 1 · 10^−9 M in the incubation medium

## 5-hydroxy-2-(4-hydroxyphenyl)-3-methyl-1-[12-[2-(N-methyl-imidazolyl)thio]-decyl]-indole [Compound 7]
[1]
  RBA(*) relative binding affinity for the estrogen receptor: 2.0
[2]; [4]
  T/C [%]: 36.8 ± 8.7%
[2]; [5]
  T/C [%]: 60.4 ± 9.1%
[2]; [6]
  T/C [%]: 83.8 ± 11.3%

## CCCCCSCCCCCCCCCCn1c(-c2ccc(O)cc2)c(C)c2cc(O)ccc21 [Compound 1, 5-Hydroxy-2-(4-hydroxyphenyl)-3-methyl-1-[10-(pentylthio)-decyl]-indole]
[1]
  RBA(*) relative binding affinity for the estrogen receptor: 0.3

## CCCCC[S+]([O-])CCCCCCCCCCn1c(-c2ccc(O)cc2)c(C)c2cc(O)ccc21 (stereo not shown) [Compound 2, 5-Hydroxy-2-(4-hydroxyphenyl)-3-methyl-1-[10-(pentylsulfinyl)-decyl]-indole]
[1]
  RBA(*) relative binding affinity for the estrogen receptor: 3.4

## CCCCCS(=O)(=O)CCCCCCCCCCn1c(-c2ccc(O)cc2)c(C)c2cc(O)ccc21 [Compound 3, 5-Hydroxy-2-(4-hydroxyphenyl)-3-methyl-1-[10-(pentylsulfonyl)-decyl]-indole]
[3]; 10 mg/kg s.c., three successive days, with estrogen 0.4 μg/animal
  action of estrogen (0.4 μg/animal) on the uterus (antiestrogenic effect): completely cancelled out
[3]; dose of 35 mg/kg s.c., three successive days
  dry weight of the uterus compared to control level: still lies below the control level
[3]
  estrogenic action on the uterus of infantile mice: does not show any estrogenic action

## CCCS(=O)(=O)CCCCCCCCCCCCn1c(-c2ccc(O)cc2)c(C)c2cc(O)ccc21 [Compound 4, 5-hydroxy-2-(4-hydroxyphenyl)-3-methyl-1-[12-(propylsulfonyl)-dodecyl]-indole]
[1]
  RBA(*) relative binding affinity for the estrogen receptor: 1.9

## CCC[S+]([O-])CCCCCCCCCCCCn1c(-c2ccc(O)cc2)c(C)c2cc(O)ccc21 (stereo not shown) [Compound 5, 5-hydroxy-2-(4-hydroxyphenyl)-3-methyl-1-[12-(propylsulfinyl)-dodecyl]-indole]
[1]
  RBA(*) relative binding affinity for the estrogen receptor: 2.9

## Cc1c(-c2ccc(O)cc2)n(CCCCCCCCSc2ccccn2)c2ccc(O)cc12 [Compound 6, 5-hydroxy-2-(4-hydroxyphenyl)-3-methyl-1-[8-(2-pyridinylthio)-octyl]-indole]
[1]
  RBA(*) relative binding affinity for the estrogen receptor: 1.4
other
  melting point: 56 to 60 °C

## CCCS(=O)(=O)N(C)CCCCCCCCCCCn1c(-c2ccc(O)cc2)c(C)c2cc(O)ccc21 [Compound 8, 5-hydroxy-2-(4-hydroxyphenyl)-3-methyl-1-[11-(N-methyl-propylsulfonamido)-undecyl]-indole]
[1]
  RBA(*) relative binding affinity for the estrogen receptor: 1.8

## Cc1c(-c2ccc(O)cc2)n(CCCCCCCCCCCN(C)S(=O)(=O)Cc2ccccc2)c2ccc(O)cc12 [Compound 9, 5-hydroxy-2-(4-hydroxyphenyl)-3-methyl-1-[11-(N-methyl-phenylmethanesulfonamido)-undecyl]-indole]
[1]
  RBA(*) relative binding affinity for the estrogen receptor: 1.0

## CCCCN(C)S(=O)(=O)CCCCCCCCCCn1c(-c2ccc(O)cc2)c(C)c2cc(O)ccc21 [Compound 10, 1-[10-(n-butyl-methylsulfamoyl)-decyl]-5-hydroxy-(4-hydroxyphenyl)-3-methylindole]
[1]
  RBA(*) relative binding affinity for the estrogen receptor: 2.6
[2]; [4]
  T/C [%]: −12.3 ± 6.3%
[2]; [5]
  T/C [%]: −13.4 ± 4.5%
[2]; [6]
  T/C [%]: 0.5 ± 6.3%
[2]; [7]
  T/C [%]: 86.3 ± 18.0%

## Cc1c(-c2ccc(O)cc2)n(CCCCCCCCC[S+]([O-])CCCC(F)(F)C(F)(F)F)c2ccc(O)cc12 (stereo not shown) [Compound 11, 5-hydroxy-2-(4-hydroxyphenyl)-3-methyl-1-[9-(4,4,5,5,5-pentafluoropentylsulfinyl)-nonyl]-indole]
[1]
  RBA(*) relative binding affinity for the estrogen receptor: 2.4
[3]
  estrogenic action on the uterus of infantile mice: virtually identical results

## Cc1c(-c2ccc(O)cc2)n(CCCCCCCCCS(=O)(=O)CCCC(F)(F)C(F)(F)F)c2ccc(O)cc12 [Compound 12, 5-hydroxy-2-(4-hydroxyphenyl)-3-methyl-1-[9-(4,4,5,5,5-pentafluoropentylsulfonyl)-nonyl]-indole]
[1]
  RBA(*) relative binding affinity for the estrogen receptor: 1.0

## CCCCN(C)C(=O)CCCSCCCCCCn1c(-c2ccc(O)cc2)c(C)c2cc(O)ccc21 [Compound 13, 1-{6-[3′-(n-butyl-methylcarbamoyl)-propylthio]-hexyl}-5-hydroxy-2-(4-hydroxyphenyl)-3-methylindole]
[1]
  RBA(*) relative binding affinity for the estrogen receptor: 1.3
[2]; [4]
  T/C [%]: 15.8 ± 6.9%
[2]; [5]
  T/C [%]: 40.2 ± 11.4%
[2]; [6]
  T/C [%]: 92.9 ± 15.2%
[2]; [7]
  T/C [%]: 85.6 ± 16.0%

## Cc1c(-c2ccc(O)cc2)n(CCCCCCCCCCSCC(=O)N(C)C(C)C)c2ccc(O)cc12 [Compound 14, 5-hydroxy-2-(4-hydroxyphenyl)-3-methyl-1-[10-[(methyl-iso-propylcarbamoyl)-methylthio]-decyl]-indole]
[1]
  RBA(*) relative binding affinity for the estrogen receptor: 1.7

## CCCCCS(=O)(=O)CCCCOc1ccc(Cn2c(-c3ccc(O)cc3)c(C)c3cc(O)ccc32)cc1 [Compound 15, 5-hydroxy-2-(4-hydroxyphenyl)-3-methyl-1-[4-[4-(pentylsulfonyl)butoxy]-benzyl]-indole]
[1]
  RBA(*) relative binding affinity for the estrogen receptor: 9.5

## CCCCCSCCCCCCCCCCn1c2c(c3cc(O)ccc31)CCc1cc(O)ccc1-2 [Compound 16, 6,11-dihydro-3,8-dihydroxy-5H-1-[10-(pentylthio)-decyl]benzo[a]carbazole]
[1]
  RBA(*) relative binding affinity for the estrogen receptor: 0.13
[2]; substance concentration 1 · 10^−5 M in the incubation medium
  T/C [%]: −38.6 ±13.9%
[2]; [4]
  T/C [%]: −7.8 ± 8.9%
[2]; [5]
  T/C [%]: −18.5 ± 15.4%
[2]; substance concentration 6 · 10^−6 M in the incubation medium
  T/C [%]: −31.1 ± 10.0%

## COc1ccc(-c2c(C)c3cc(OC)ccc3n2CCCCCCCCSc2ccccn2)cc1 [Example 6, 5-Methoxy-2-(4-methoxyphenyl)-3-methyl-1-[8-(2-pyridinylthio)-octyl]-indole]
other
  melting point: 75 to 77 °C

## CNC(=O)CCCCCCCCCCn1c(-c2ccc(OC)cc2)c(C)c2cc(OC)ccc21 [Example 7, 5-Methoxy-2-(4-methoxyphenyl)-3-methyl-1-[10-(N-methylcarbamoyl)-decyl]-indole]
other
  melting point: 88 °C
